Measurements taken from US9802927B2, “Oxadiazine compounds and methods of use thereof” (Denali Therapeutics, Inc., priority 2015, dated 2017).

The molecules below were run on Aβ42 (assay: In vitro cell screening assay in H4 cells expressing human APP751: Aβ42 by sandwich ELISA). Settings: Homo sapiens, compounds 0.003-10 μM, incubated overnight (16-18 h), sandwich ELISA of supernatant.
Assay type: cell-based
How it was run: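 Secreted Aβ42 measured by sandwich ELISA, C-terminal-specific capture and 4G8-HRP detection, TMB read at 450 nm, from supernatants of APP751-expressing H4 cells exposed overnight (16-18 h) to 0.003-10 μM compound in Pro293 medium, 0.33% DMSO. Data scaled between DMSO and DAPT controls; EC50 from variable-slope nonlinear regression.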

Row | EC50 [nM] | SMILES
1 | 2130 | COc1nc(C2=NOCC(C3CCC(F)(F)CC3)N2)ccc1-n1cnc(C)c1 (single isomer, unassigned; (-)) [Example 139A, (−)-5-(4,4-difluorocyclohexyl)-3-(6-methoxy-5-(4-methyl-1H-imidazol-1-yl)pyridin-2-yl)-5,6-dihydro-4H-1,2,4-oxadiazine]
2 | 13.7 | COc1nc(C2=NOCC(c3cc4cccc(C)c4o3)N2)ccc1-n1cnc(Cl)c1 (single isomer, unassigned; (+)) [Example 24, (+)-3-(5-(4-Chloro-1H-imidazol-1-yl)-6-methoxypyridin-2-yl)-5-(7-methylbenzofuran-2-yl)-5,6-dihydro-4H-1,2,4-oxadiazine]

Same assay, conditions: compounds 0.003-10 μM, incubated overnight (16-18 h), sandwich ELISA of supernatant

Row | SMILES | EC50 [nM]
3 | COc1nc(C2=NOCC(c3ccc(F)c(C(F)(F)F)c3)N2)ccc1-n1cnc(C)c1 (single isomer, unassigned) [Example 44A, 5-(4-fluoro-3-(trifluoromethyl)phenyl)-3-(6-methoxy-5-(4-methyl-1H-imidazol-1-yl)pyridin-2-yl)-5,6-dihydro-4H-1,2,4-oxadiazine] | > 3000
4 | COc1nc(C2=NOCC(c3ccc(Cl)c(C(F)(F)F)c3)N2)ccc1-n1cnc(C)c1 (single isomer, unassigned) [Example 253A, 5-(4-chloro-3-(trifluoromethyl)phenyl)-3-(6-methoxy-5-(4-methyl-1H-imidazol-1-yl)pyridin-2-yl)-5,6-dihydro-4H-1,2,4-oxadiazine] | 654
5 | COc1nc(C2=NOCC(c3cn(C)c4ncc(Cl)cc34)N2)ccc1-n1cnc(C)c1 (single isomer, unassigned; (-)) [Example 264A, (−)-5-(5-chloro-1-methyl-1H-pyrrolo[2,3-b]pyridin-3-yl)-3-(6-methoxy-5-(4-methyl-1H-imidazol-1-yl)pyridin-2-yl)-5,6-dihydro-4H-1,2,4-oxadiazine] | 321
6 | COc1nc(C2=NOCC(c3cccc(Cl)c3)N2)ccc1-n1cnc(C)c1 (single isomer, unassigned; (-)) [Example 244A, (−)-5-(3-chlorophenyl)-3-(6-methoxy-5-(4-methyl-1H-imidazol-1-yl)pyridin-2-yl)-5,6-dihydro-4H-1,2,4-oxadiazine] | 668
7 | COc1nc(C2=NOCC(c3ccc(Cl)c(C(F)F)c3)N2)ccc1-n1cnc(C)c1 (single isomer, unassigned; (-)) [Example 270A, (−)-5-(4-chloro-3-(difluoromethyl)phenyl)-3-(6-methoxy-5-(4-methyl-1H-imidazol-1-yl)pyridin-2-yl)-5,6-dihydro-4H-1,2,4-oxadiazine] | 418
8 | COc1nc(C2=NOCC(c3cc4cccc(F)c4o3)N2)ccc1-n1cnc(C)c1 (single isomer, unassigned; (-)) [Example 89A, (−)-5-(7-fluorobenzofuran-2-yl)-3-(6-methoxy-5-(4-methyl-1H-imidazol-1-yl)pyridin-2-yl)-5,6-dihydro-4H-1,2,4-oxadiazine] | 2340
9 | COc1nc(C2=NOCC(c3ccc(F)cc3F)N2)ccc1-n1cnc(C)c1 (single isomer, unassigned) [Example 129A, 5-(2,4-difluorophenyl)-3-(6-methoxy-5-(4-methyl-1H-imidazol-1-yl)pyridin-2-yl)-5,6-dihydro-4H-1,2,4-oxadiazine] | 2780
10 | COc1nc(C2=NOCC(C3CCS(=O)(=O)CC3)N2)ccc1-n1cnc(C)c1 (single isomer, unassigned; (-)) [Example 177B, (−)-4-(3-(6-methoxy-5-(4-methyl-1H-imidazol-1-yl)pyridin-2-yl)-5,6-dihydro-4H-1,2,4-oxadiazin-5-yl) tetrahydro-2H-thiopyran 1,1-dioxide] | > 3000
11 | COc1nc(C2=NOCC(c3cn(C)c4ccc(F)cc34)N2)ccc1-n1cnc(C)c1 (single isomer, unassigned; (-)) [Example 190A, (−)-5-(5-fluoro-1-methyl-1H-indol-3-yl)-3-(6-methoxy-5-(4-methyl-1H-imidazol-1-yl)pyridin-2-yl)-5,6-dihydro-4H-1,2,4-oxadiazine] | 287

The next lines start with the values.

Row | EC50 [nM] | SMILES
12 | 8.4 | COc1nc(C2=NOCC(c3cn(C4CC4)c4cc(F)ccc34)N2)ccc1-n1cnc(C)c1 (single isomer, unassigned; (+)) [Example 228B, (+)-5-(1-cyclopropyl-6-fluoro-1H-indol-3-yl)-3-(6-methoxy-5-(4-methyl-1H-imidazol-1-yl)pyridin-2-yl)-5,6-dihydro-4H-1,2,4-oxadiazine]
13 | 44.2 | COc1nc(C2=NOCC(c3cc4cccc(F)c4o3)N2)ccc1-n1cnc(C)c1 (single isomer, unassigned; (+)) [Example 89B, (+)-5-(7-fluorobenzofuran-2-yl)-3-(6-methoxy-5-(4-methyl-1H-imidazol-1-yl)pyridin-2-yl)-5,6-dihydro-4H-1,2,4-oxadiazine]
14 | 7.7 | COc1nc(C2=NOCC(c3cn(C)c4cc(Cl)ccc34)N2)ccc1-n1cnc(C)c1 (single isomer, unassigned; (+)) [Example 194A, (+)-5-(6-chloro-1-methyl-1H-indol-3-yl)-3-(6-methoxy-5-(4-methyl-1H-imidazol-1-yl)pyridin-2-yl)-5,6-dihydro-4H-1,2,4-oxadiazine]
15 | 5 | COc1nc(C2=NOCC(c3cn(C)c4ncc(C(F)(F)F)cc34)N2)ccc1-n1cnc(C)c1 (single isomer, unassigned; (+)) [Example 206B, (+)-3-(6-methoxy-5-(4-methyl-1H-imidazol-1-yl)pyridin-2-yl)-5-(1-methyl-5-(trifluoromethyl)-1H-pyrrolo [2,3-b]pyridin-3-yl)-5,6-dihydro-4H-1,2,4-oxadiazine]
16 | 12.7 | COc1nc(C2=NOCC(c3cc4c(Cl)cccc4o3)N2)ccc1-n1cnc(C)c1 (single isomer, unassigned; (+)) [Example 96B, (+)-5-(4-chlorobenzofuran-2-yl)-3-(6-methoxy-5-(4-methyl-1H-imidazol-1-yl)pyridin-2-yl)-5,6-dihydro-4H-1,2,4-oxadiazine]
17 | 9.5 | COc1nc(C2=NOCC(c3cc4cc(C5CC5)ccc4o3)N2)ccc1-n1cnc(C)c1 (single isomer, unassigned; (+)) [Example 234B, (+)-5-(5-cyclopropylbenzofuran-2-yl)-3-(6-methoxy-5-(4-methyl-1H-imidazol-1-yl)pyridin-2-yl)-5,6-dihydro-4H-1,2,4-oxadiazine]
18 | 130 | COc1nc(C2=NOCC(C(C)(C)C)N2)ccc1-n1cnc(C)c1 (single isomer, unassigned; (-)) [Example 147A, (−)-5-(tert-butyl)-3-(6-methoxy-5-(4-methyl-1H-imidazol-1-yl)pyridin-2-yl)-5,6-dihydro-4H-1,2,4-oxadiazine]
19 | 71.4 | COc1nc(C2=NOCC(c3cn(C)c4cc(F)cc(F)c34)N2)ccc1-n1cnc(C)c1 (single isomer, unassigned; (-)) [Example 226B, (−)-5-(4,6-difluoro-1-methyl-1H-indol-3-yl)-3-(6-methoxy-5-(4-methyl-1H-imidazol-1-yl)pyridin-2-yl)-5,6-dihydro-4H-1,2,4-oxadiazine]
20 | 240 | COc1nc(C2=NOCC(c3cnc4ccc(Cl)cn34)N2)ccc1-n1cnc(C)c1 (single isomer, unassigned; (+)) [Example 269B, (+)-5-(6-chloroimidazo[1,2-a]pyridin-3-yl)-3-(6-methoxy-5-(4-methyl-1H-imidazol-1-yl)pyridin-2-yl)-5,6-dihydro-4H-1,2,4-oxadiazine]
21 | 15.8 | COc1ccc2c(c1)c(C1CON=C(c3ccc(-n4cnc(C)c4)c(OC)n3)N1)cn2C (single isomer, unassigned; (+)) [Example 250B, (+)-5-(5-methoxy-1-methyl-1H-indol-3-yl)-3-(6-methoxy-5-(4-methyl-1H-imidazol-1-yl)pyridin-2-yl)-5,6-dihydro-4H-1,2,4-oxadiazine]
22 | 38.4 | COc1nc(C2=NOCC(c3cc4ccccc4o3)N2)ccc1-n1cnc(C)c1 (single isomer, unassigned; (+)) [Example 186B, (+)-5-(benzofuran-2-yl)-3-(6-methoxy-5-(4-methyl-1H-imidazol-1-yl)pyridin-2-yl)-5,6-dihydro-4H-1,2,4-oxadiazine]
23 | 26.3 | COc1nc(C2=NOCC(c3cccc(Cl)c3)N2)ccc1-n1cnc(C)c1 (single isomer, unassigned; (+)) [Example 244B, (+)-5-(3-chlorophenyl)-3-(6-methoxy-5-(4-methyl-1H-imidazol-1-yl)pyridin-2-yl)-5,6-dihydro-4H-1,2,4-oxadiazine]
24 | 12.9 | COc1nc(C2=NOCC(c3cn(C)c4cc(Cl)cc(OC)c34)N2)ccc1-n1cnc(C)c1 (single isomer, unassigned; (+)) [Example 254B, (+)-5-(6-chloro-4-methoxy-1-methyl-1H-indol-3-yl)-3-(6-methoxy-5-(4-methyl-1H-imidazol-1-yl)pyridin-2-yl)-5,6-dihydro-4H-1,2,4-oxadiazine]
25 | 250 | COc1nc(C2=NOCC(c3ccc(C4CC4)c(Cl)c3)N2)ccc1-n1cnc(C)c1 (single isomer, unassigned; (-)) [Example 243A, (−)-5-(3-chloro-4-cyclopropylphenyl)-3-(6-methoxy-5-(4-methyl-1H-imidazol-1-yl)pyridin-2-yl)-5,6-dihydro-4H-1,2,4-oxadiazine]
26 | 13.2 | COc1nc(C2=NOCC(c3ccc(C4CC4)c(Cl)c3)N2)ccc1-n1cnc(C)c1 (single isomer, unassigned; (+)) [Example 243B, (+)-5-(3-chloro-4-cyclopropylphenyl)-3-(6-methoxy-5-(4-methyl-1H-imidazol-1-yl)pyridin-2-yl)-5,6-dihydro-4H-1,2,4-oxadiazine]
27 | 61.3 | COc1nc(C2=NOCC(c3ccc(Cl)cc3C)N2C)ccc1-n1cnc(C)c1 (single isomer, unassigned) [Example 27B, 5-(4-chloro-2-methylphenyl)-3-(6-methoxy-5-(4-methyl-1H-imidazol-1-yl)pyridin-2-yl)-4-methyl-5,6-dihydro-4H-1,2,4-oxadiazine]
